Assay results from PMC9951879, “Synthesis of New Shogaol Analogues as NRF2 Activators and Evaluation of Their Anti-Inflammatory Activity, Modes of Action and Metabolic Stability” (Antioxidants, 2023).
Where two headings read alike, the source gives them in different places.

Tests used:
[1] = test system: NAD(P)H quinone oxidoreductase 1 (NQO1); assay: Prochaska microtiter plate bioassay, NQO1 induction in Hepa-1c1c7 cells; type: cell-based, mouse
Procedure: The effect of shogaol thiophene compounds (STCs) on NRF2 activation is determined by measuring the NAD(P)H quinone oxidoreductase 1 (NQO1) inducer activity, as reported in our previous studies. The mouse hepatoma cells (Hepa-1c1c7, 1 × 10^4 per well) were incubated with STCs (10, 1, 0.1, 0.01, and 0.001 µM) for 48 h. The cells were lysed using digitonin (0.8 mg/mL and 2 mM EDTA; Acros, UK), and the protein concentration was determined using Bradford’s assay kit (Thermo Fisher Scientific, USA). The cell lysate was incubated with a reaction mixture of 0.5 M Tris-Cl buffer (Calbiochem, USA), 7.5 mM FAD (Acros, UK), 150 mM glucose-6-phosphate (Calbiochem, San Diego, CA, USA), 2 U/mL glucose-6-phosphate dehydrogenase (Calbiochem, USA), 50 mM NADP+ (Sigma Aldrich, USA), 25 mM menadione (Sigma Aldrich, USA), and 0.7 mM MTT (Sigma Aldrich, USA) at 37 °C for 5 min. The absorbance was recorded at 610 nm using a microplate reader (Spectramax M3, Molecular Devices, San Jose, CA, USA), and the values were normalised to the total protein content.

NRF2 = assay: qPCR gene expression in Hepa1c1c-7 cells: NRF2; type: cell-based, mouse; conditions: 1 μM, 48 h, Hepa-1c1c7 cells
Procedure: (§1) Hepa1c1c-7 cells were treated with STCs (1 μM) for 48 h, and the total RNA was isolated using QIAzol®lysis reagent (Qiagen, Germany). Next, cDNA was synthesised using the ReverTra Ace® qPCR RT Master Mix Kit (Toyobo Research Reagents, Osaka, Japan). Quantitative PCR was performed using THUNDERBIRD^TM Next SYBR® qPCR Mix (Toyobo Research Reagents, Osaka, Japan) in CFX96 Touch Real-Time PCR Detection System (Bio-Rad Laboratories, San Jose, CA, USA). The genes tested and the respective primers (purchased from Integrated DNA Technologies, Coralville, IA, USA) used in the study are shown in Table 1. β-actin was used as a reference gene for the normalisation of target gene expression. The 2^−ΔΔCt method was used to measure the relative expression of target genes.

HMOX1 = assay: qPCR gene expression in Hepa1c1c-7 cells: HMOX1; type: cell-based, mouse; conditions: 1 μM, 48 h, Hepa-1c1c7 cells
Procedure: as §1

NQO1 = assay: qPCR gene expression in Hepa1c1c-7 cells: NQO1; type: cell-based, mouse; conditions: 1 μM, 48 h, Hepa-1c1c7 cells
Procedure: as §1

TXNRD1 = assay: qPCR gene expression in Hepa1c1c-7 cells: TXNRD1; type: cell-based, mouse; conditions: 1 μM, 48 h, Hepa-1c1c7 cells
Procedure: as §1

PRDX1 = assay: qPCR gene expression in Hepa1c1c-7 cells: PRDX1; type: cell-based, mouse; conditions: 1 μM, 48 h, Hepa-1c1c7 cells
Procedure: as §1

G6PDX = assay: qPCR gene expression in Hepa1c1c-7 cells: G6PDX; type: cell-based, mouse; conditions: 1 μM, 48 h, Hepa-1c1c7 cells
Procedure: as §1

nitric oxide (NO) = assay: Nitric oxide (Griess) in LPSEc-stimulated BV-2 cells; type: cell-based, mouse; conditions: LPSEc 200 ng/mL; for NO production: 1 μM; for inhibition at 1 µM: Mus musculus, BV-2, 1 μM, read-out: percentage of NO inhibition
Procedure: (§2) The anti-inflammatory activity of the STCs was determined in E. coli lipopolysaccharide (LPSEc; Sigma Aldrich, USA)-induced inflammation in NRF2-proficient and NRF2 siRNA-transfected mouse microglial (BV-2) cells. The NRF2 was silenced in BV-2 cells using NRF2 siRNA (Santa Cruz Biotechnology, Dallas, TX, USA) in Opti-MEM transfection medium (Thermo Fisher Scientific, USA) using Lipofectamine^TM LTX reagent with PLUS^TM reagent (Thermo Fisher Scientific, USA) following the manufacturer’s protocol and reported method. The cells (5 × 10^5 cells/well) were allowed to form a monolayer by incubating them for 24 h and then adding LPSEc (200 ng/mL) for 4 h. The STCs (1 µM) were then added and incubated for another 20 h. The nitric oxide (NO) level in cell supernatant was determined using the Griess reagent kit (Thermo Fisher Scientific, USA). The levels of proinflammatory cytokines (IL-1β, IL-6, IFN-γ, and TNF-α) in cell supernatant solutions were determined using commercially available ELISA kits (Abcam, Cambridge, UK). The cell pellets were lysed using Cell Lysis buffer (Thermo Fisher Scientific, Waltham, MA, USA) following the manufacturer’s instructions. The supernatant solution in the wells was replaced with PBS, and cells were detached by scraping, washed with PBS, and centrifuged to collect the cell pellet. The cell pellet was lysed on ice in a cell lysis buffer for half an hour, vortexing at regular intervals. The cell lysate was centrifuged at 15,000 rpm for 15 min at 4 °C. The clear lysate was stored at −80 °C until further use. The protein concentration was determined using Bradford’s assay kit (Thermo Fisher Scientific, USA) following the manufacturer’s instructions. The expression of COX-2, NF-κB p65, NRF2, and HO-1 in cell lysates was determined using commercially available ELISA kits (Abcam, St, Louis, Missouri, USA) following the manufacturer’s protocol. In addition, the thiol content was determined using a thiol quantification assay kit (Abcam, USA).

IFN-γ = IFN-γ ELISA in LPSEc-stimulated BV-2 cells; type: cell-based, mouse; conditions: LPSEc 200 ng/mL; for IFN-γ level: 1 μM; for inhibition at 1 µM: Mus musculus, BV-2, 1 μM, read-out: percentage of IFN-γ inhibition
Procedure: as §2

[2] = Liver microsomal stability, mouse; type: in vitro ADME; conditions: mouse liver microsomes, 1 μM (verapamil 0.5 μM)
Procedure: The liver microsomes of humans, rats, and mice were purchased from Merck (human, #M0567; rat, #M9066; mouse, #M9441). The metabolic stability of 6-shogaol and STCs (1 μM effective concentration; 5 μL) was mixed with liver microsomes (0.5 mg mL^−1; 445 μL) in a microcentrifuge tube. Verapamil (0.5 μM) was used as the positive control. The microsome and compound mixture were shaken on a plate shaker for 5 min to ensure homogeneity. NADPH (1 mM; 50 μL) was added to the mixture to start the metabolic reaction. The reaction mixture was incubated at 37 °C for 0, 3, 6, 15, 30, 45, and 60 min. The mixture (20 μL) was sampled and quenched with 180 μL of acetonitrile with internal standard (Donepezil 50 ng/mL) to terminate the metabolic reaction at each time point. Ultrapure water (80 μL) was added, and contents in the microcentrifuge tubes were centrifuged at 3800 rpm at 4 °C for 10 min. […] Each set of experiments was repeated three times in human, rat, and mouse liver microsomes. The concentration of the compounds versus time was plotted to determine the elimination rate constant (Kel). The intrinsic clearance (Clint) and half-life (t1/2) were calculated using the following equations.

Row | SMILES | times more potent than 6-shogaol (NRF2 activation) ([1]; versus 6-shogaol) [times] | NRF2 gene expression foldchange (compared to control) (NRF2) | HMOX1 gene expression foldchange (compared to control) (HMOX1) | NQO1 gene expression foldchange (compared to control) (NQO1) | TXNRD1 gene expression foldchange (compared to control) (TXNRD1) | PRDX1 gene expression foldchange (compared to control) (PRDX1) | G6PDX gene expression foldchange (compared to control) (G6PDX) | NO production (nitric oxide (NO); NRF2-proficient BV-2 cells) [µM] | inhibition at 1 µM (nitric oxide (NO); NRF2-proficient BV-2 cells) [%] | inhibition at 1 µM (nitric oxide (NO); NRF2-silenced BV-2 cells) [%] | IFN-γ level (IFN-γ; NRF2-proficient BV-2 cells) [pg/mL] | IFN-γ level (IFN-γ; NRF2-silenced BV-2 cells) [pg/mL] | inhibition at 1 µM (IFN-γ; NRF2-proficient BV-2 cells) [%] | inhibition at 1 µM (IFN-γ; NRF2-silenced BV-2 cells) [%] | Clint [2] [mL/min/g liver] | half-life at 1 μM [2] [min] | concentration toxic to the cells in the NQO1 assay ([1]; Hepa-1c1c7 cells) | EC (2-fold NQO1 induction) ([1]; Mus musculus, Hepa-1c1c7, 48 h, Hepa-1c1c7 cells, 48 h, read-out: CD (concentration required to double the NQO1 level)) [µM] | NO production (nitric oxide (NO); NRF2-silenced BV-2 cells) [µM] | CD (concentration required to double the NQO1 level) ([1]; Hepa-1c1c7 cells, 48 h)
1 | COc1cc(CCC(=O)/C=C/c2cc(-c3ccccc3)cs2)ccc1O [STC5, (E)-5-(4-Hydroxy-3-methoxyphenyl)-1-(4-phenylthiophen-2-yl)pent-1-en-3-one] | 65 | 3.21 ± 0.08 | 3.01 ± 0.10 | 2.94 ± 0.01 | 2.52 ± 0.06 | 3.04 ± 0.09 | 3.83 ± 0.02 | 2.58 ± 0.04 | 75.5 | 64.8 | 14.34 ± 1.10 | 31.19 ± 0.85 | 42.7 | 25.6 | 6.42 ± 1.52 | 11.3 | – | – | – | –
2 | CCCCC/C=C/C(=O)CCc1ccc(O)c(OC)c1 [6-shogaol, reference compound] | – | 1.26 ± 0.05 | 1.34 ± 0.05 | 1.20 ± 0.06 | 1.20 ± 0.08 | 1.37 ± 0.07 | 2.27 ± 0.03 | 6.32 ± 0.03 | 40 | 24.7 | 25.75 ± 0.72 | 37.52 ± 1.01 | 36.3 | 10.5 | 14.32 ± 1.51 | 5.08 | 10 µM | 4.12 ± 0.52 | 8.56 ± 0.36 | –
3 | COc1cc(CCC(=O)/C=C/c2ccc([N+](=O)[O-])s2)ccc1O [STC8, (E)-5-(4-Hydroxy-3-methoxyphenyl)-1-(5-nitrothiophen-2-yl)pent-1-en-3-one] | – | – | – | – | – | – | – | 6.38 ± 0.04 | – | – | 24.63 ± 0.64 | 37.86 ± 1.69 | – | – | 11.26 ± 2.69 | 6.46 | greater than 1 μM | – | 8.86 ± 0.38 | did not show the CD value
